Reference: patent publication US12433962B2, “Probes for imaging b-amyloid and inhibition of β-amyloid aggregation” (The Hong Kong University of Science and Technology, priority 2021, dated 2025)

Experiments:
[1] = Solubility in solvents and water; format: physicochemical
[2] = Emission and AIE properties in solvent mixtures; format: physicochemical
Excerpt: FIG. 2 depicts (A) Normalized absorption spectra of DCTB, DCPH and DNTPH in DMSO solution; (B) Normalized fluorescence (PL) spectra of DCTB, DCPH and DNTPH in aggregates; (C) Plot of the changes in fluorescence intensity with different water fraction (fw, in volume percentage, vol %), where I0 and I are the maximal fluorescence intensity recorded before and after adding water into the THF solution of DCTB. (D) Plot of the changes in fluorescence intensity with different toluene fractions (ft, in volume percentage, vol %), where I0 and I are the maximal fluorescence intensity recorded before and after adding toluene into the DMSO solution of DCPH and DNTPH respectively. [AIE dyes]=10 μM.
DCTB and DCPH were synthesized and their structure-activity relationship was investigated (FIG. 1).
However, to achieve a more obvious emission enhancement with low background signals, the TICT and AIE properties can be further modified. […] DNTPH was non-emissive in aqueous solution, and its NIR fluorescence at 683 nm was continuously intensified until the volume fraction of toluene (ft) […] was increased to about 40-fold (FIG. 2D). In addition, initial weedy fluorescence intensity of DNTPH in aqueous solution and the outstanding emission enhancement behavior in the aggregated state made it an ideal candidate for detecting protein fibrillogenesis, like Aβ aggregates.

Aβ42 fibril = Aβ42 fibril (Homo sapiens, UniProt P05067); assay: Fluorescent response upon binding to Aβ42 fibrils in phosphate buffer; conditions: titrated with Aβ42 fibril in phosphate buffer; dye 1 μM
Procedure: FIG. 4 depicts determination of the binding constant of DNTPH for Aβ42 aggregates. (A) Plot of the PL intensity as a function of the concentration of DNTPH in the presence of Aβ42 aggregates (3 μM) in PBS solution (pH=7.4); (B)Response time of DNTPH binding to Aβ42 aggregates. […] (D) Ultrahigh S/N ratio of DNTPH toward Aβ42 aggregates compared to the background signals in PBS and that towards BSA.
It was investigated whether DNTPH has a fluorescent response upon binding to Aβ aggregates. When DNTPH was titrated with the Aβ42 fibril in phosphate buffer, a strong and progressive increase (up to about 18-fold) in red fluorescence intensity concomitant was observed, which took ˜30 min to reach a plateau. Without wishing to be bound by theory, it is believed that DNTPH is capable of binding hydrophobic surfaces in aggregated amyloid fibrils with the help of the binding unit, resulting in the decrease of conformational freedom and rotational restriction. […] That is because these three probes show high background signals, which results in low S/N ratio even with a decent fluorescent response to testing objects.

PC12 cell = assay: MTT cytotoxicity assay in PC12 cells; format: cell-based
Procedure: FIG. 7 depicts (A) Cytotoxicity towards […] PC-12 cells of Aβ monomer under 24 h and 48 h incubation. (B) Cytotoxicity of Aβ fibrils under 24 h and 48 h incubation. […] (D) Cell viability of different concentrations of DNTPH towards PC-12 cells under 24 h and 48 h incubation.

Sequence of Aβ42 fibril (P05067 672-713 limits assumed): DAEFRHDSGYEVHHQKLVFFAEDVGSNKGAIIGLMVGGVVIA

Q: For `CCN(CC)c1ccc2cc(C=Cc3cc[n+](CCO)cc3)c(=O)oc2c1.[Br-]` [DCPH], which solubility [1] is on record?
A: more soluble in water and polar solvent

Q: And the emission maximum [2]?
A: 690 nm

Q: What about the “PL intensity enhancement in aggregates compared with DMSO solution” value ([2]; DMSO/toluene mixtures, 99% toluene fraction (ft)) of the same compound?
A: about 2 fold

Q: For `CCN(CC)c1ccc2cc(C=C(C#N)c3nc4ccccc4s3)c(=O)oc2c1` [DCTB], which solubility [1] is on record?
A: soluble in THF but aggregated in water

Q: What about the emission maximum [2] of the same compound?
A: 601 nm

Q: And the “AIE effect, fluorescence intensity increase” value ([2]; THF/water, water fraction (fw) 70%)?
A: less than 2 fold

Q: For `Cc1ccc2c(c1)sc(-c1ccc(N(C)C)cc1)[n+]2C.[Cl-]` [ThT, thioflavin T], which “increase in fluorescence intensity (fluorescent response) to Aβ42 fibril” value (Aβ42 fibril) is on record?
A: 5 fold

Q: Which cell death (PC12 cell; 20 μM, 48 h incubation) does the source give for Aβ monomer: monomeric amyloid-β peptide here?
A: 50%

Q: What about the cytotoxicity (PC12 cell; 5-20 μM, less than 24 h of exposure) of the same compound?
A: No significant cytotoxicity
